Legend:
[1] = target: T1, human D3 receptor (Homo sapiens, UniProt P35462); assay: radioligand binding with [^3H]spiperone, D3; settings: ratio of Ki values
T1 construct: expressed in transfected cells; host or cells: Chinese hamster ovary (CHO) cells, membranes
Summary of the method: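 Membranes from CHO cell lines expressing each human receptor subtype incubated with [^3H]spiperone. Test compounds spanned subnanomolar to micromolar concentrations in competition format.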

[2] = target: T2, human D2long receptor (Homo sapiens, UniProt P14416); settings: published derivatives with carboxamide alkylene spacer; read-out: Ki D2lo; cited from earlier work
T2 construct: expressed in transfected cells; host or cells: Chinese hamster ovary (CHO) cells, membranes
T2 sequence (P14416 whole entry): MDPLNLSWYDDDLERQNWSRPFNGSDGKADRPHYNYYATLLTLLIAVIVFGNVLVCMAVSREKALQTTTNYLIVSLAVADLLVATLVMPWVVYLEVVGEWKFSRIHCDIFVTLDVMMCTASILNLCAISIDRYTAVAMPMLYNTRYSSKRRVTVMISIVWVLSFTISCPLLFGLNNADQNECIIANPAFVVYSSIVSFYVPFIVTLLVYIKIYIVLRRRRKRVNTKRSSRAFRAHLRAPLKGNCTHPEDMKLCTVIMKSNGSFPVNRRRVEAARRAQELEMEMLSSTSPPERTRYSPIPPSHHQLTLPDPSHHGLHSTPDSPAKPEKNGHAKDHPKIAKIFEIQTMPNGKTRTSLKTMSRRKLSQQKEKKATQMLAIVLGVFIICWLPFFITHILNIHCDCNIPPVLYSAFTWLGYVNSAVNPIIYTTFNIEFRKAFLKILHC

[3] = target: T3, human D2short receptor (Homo sapiens, UniProt P14416); settings: published derivatives with carboxamide alkylene spacer; read-out: Ki D2sh; cited from earlier work
T3 construct: expressed in transfected cells; host or cells: Chinese hamster ovary (CHO) cells, membranes
T3 sequence (P14416 1-414 isoform P14416-2): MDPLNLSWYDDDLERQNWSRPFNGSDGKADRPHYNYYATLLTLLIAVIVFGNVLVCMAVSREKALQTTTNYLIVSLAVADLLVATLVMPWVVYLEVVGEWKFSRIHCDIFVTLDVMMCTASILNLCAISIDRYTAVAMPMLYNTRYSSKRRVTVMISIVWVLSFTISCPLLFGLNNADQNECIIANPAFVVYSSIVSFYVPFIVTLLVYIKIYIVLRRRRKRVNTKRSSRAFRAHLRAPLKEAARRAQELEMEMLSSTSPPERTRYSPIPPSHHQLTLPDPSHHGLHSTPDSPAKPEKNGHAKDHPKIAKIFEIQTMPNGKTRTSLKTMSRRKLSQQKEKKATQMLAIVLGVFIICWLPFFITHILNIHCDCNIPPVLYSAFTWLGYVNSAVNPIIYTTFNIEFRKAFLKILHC

[4] = target: T1, human D3 receptor; settings: published derivatives with carboxamide alkylene spacer; cited from earlier work
[5] = target: T4, human D4.4 receptor (Homo sapiens, UniProt P21917); settings: published derivatives with carboxamide alkylene spacer; cited from earlier work
T4 construct: expressed in transfected cells; host or cells: Chinese hamster ovary (CHO) cells, membranes
T4 sequence (P21917 1-419): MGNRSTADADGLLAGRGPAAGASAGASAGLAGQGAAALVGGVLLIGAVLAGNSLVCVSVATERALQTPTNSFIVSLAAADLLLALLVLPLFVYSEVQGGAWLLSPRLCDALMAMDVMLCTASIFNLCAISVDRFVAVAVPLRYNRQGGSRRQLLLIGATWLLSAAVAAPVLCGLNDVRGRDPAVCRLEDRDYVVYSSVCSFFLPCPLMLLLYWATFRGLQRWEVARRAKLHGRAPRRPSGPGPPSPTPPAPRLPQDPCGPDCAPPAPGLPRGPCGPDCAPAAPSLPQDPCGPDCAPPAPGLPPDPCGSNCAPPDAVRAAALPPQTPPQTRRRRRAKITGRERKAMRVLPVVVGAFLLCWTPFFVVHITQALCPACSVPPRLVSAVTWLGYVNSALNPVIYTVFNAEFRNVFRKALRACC

[6] = target: T5, 5-HT1A receptor (Sus scrofa, UniProt A0A4X1UTF5); settings: published derivatives with carboxamide alkylene spacer; cited from earlier work
T5 construct: membrane preparations from porcine cortical material; from tissue; host or cells: porcine cerebral cortex membranes
T5 sequence (A0A4X1UTF5 1-422): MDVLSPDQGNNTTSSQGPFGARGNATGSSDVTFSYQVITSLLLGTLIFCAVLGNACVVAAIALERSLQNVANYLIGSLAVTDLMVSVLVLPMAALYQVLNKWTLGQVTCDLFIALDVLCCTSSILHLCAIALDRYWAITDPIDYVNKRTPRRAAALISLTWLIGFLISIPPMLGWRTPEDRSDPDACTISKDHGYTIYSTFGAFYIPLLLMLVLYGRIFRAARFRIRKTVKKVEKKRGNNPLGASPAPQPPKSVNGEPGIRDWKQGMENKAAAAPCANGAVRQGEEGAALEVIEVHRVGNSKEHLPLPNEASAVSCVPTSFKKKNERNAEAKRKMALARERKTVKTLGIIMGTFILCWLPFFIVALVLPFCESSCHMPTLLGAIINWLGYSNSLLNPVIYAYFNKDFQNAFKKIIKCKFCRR

[7] = target: T6, 5-HT2 receptor (Sus scrofa, UniProt P50129); settings: published derivatives with carboxamide alkylene spacer; cited from earlier work
T6 construct: membrane preparations from porcine cortical material; from tissue; host or cells: porcine cerebral cortex membranes
T6 sequence (P50129 whole entry): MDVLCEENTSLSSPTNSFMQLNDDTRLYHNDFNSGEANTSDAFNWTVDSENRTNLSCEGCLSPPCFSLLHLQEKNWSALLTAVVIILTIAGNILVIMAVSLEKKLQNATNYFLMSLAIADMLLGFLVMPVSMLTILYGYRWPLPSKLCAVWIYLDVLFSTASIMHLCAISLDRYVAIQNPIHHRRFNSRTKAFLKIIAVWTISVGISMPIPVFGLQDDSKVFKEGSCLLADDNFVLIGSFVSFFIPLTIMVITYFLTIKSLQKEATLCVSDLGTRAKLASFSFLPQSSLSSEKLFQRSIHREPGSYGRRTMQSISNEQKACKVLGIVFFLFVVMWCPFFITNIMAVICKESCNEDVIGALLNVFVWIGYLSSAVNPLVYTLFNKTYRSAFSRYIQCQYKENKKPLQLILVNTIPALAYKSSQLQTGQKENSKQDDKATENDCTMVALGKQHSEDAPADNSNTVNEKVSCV

T1 sequence (P35462 whole entry): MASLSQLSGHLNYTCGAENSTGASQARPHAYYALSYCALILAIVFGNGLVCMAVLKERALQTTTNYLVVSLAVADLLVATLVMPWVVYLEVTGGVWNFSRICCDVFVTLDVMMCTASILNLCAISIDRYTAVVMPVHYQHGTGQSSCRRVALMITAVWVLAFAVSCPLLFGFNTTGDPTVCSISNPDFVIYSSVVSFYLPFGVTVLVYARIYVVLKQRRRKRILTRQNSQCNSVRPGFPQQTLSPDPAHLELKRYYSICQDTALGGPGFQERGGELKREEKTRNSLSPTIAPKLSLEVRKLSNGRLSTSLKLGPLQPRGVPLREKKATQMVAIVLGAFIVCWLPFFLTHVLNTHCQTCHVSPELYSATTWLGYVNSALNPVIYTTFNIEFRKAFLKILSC

| Compound | ratio D2lo/D3 [1] | Ki [2] [nM] | Ki [3] [nM] | Ki [4] [nM] | Ki [5] [nM] | Ki [6] [nM] | Ki [7] [nM] |
| --- | --- | --- | --- | --- | --- | --- | --- |
| O=C(NCCCCN1CCN(c2cccc(Cl)c2Cl)CC1)c1ccn2nccc2c1 [Example B26] | 340 | 86 | 51 | 0.25 | 210 | 28 | 44 |
| COc1ccccc1N1CCN(CCCCNC(=O)c2ccc3nccn3c2)CC1 [Example B93] | 11 | 82 | 30 | 7.8 | 140 | 12 | 950 |
| COc1ccccc1N1CCN(CCCCNC(=O)c2ccn3ncc(Cl)c3c2)CC1 [Example B29] | 16 | 220 | 96 | 14 | 77 | 13 | 420 |
| COc1ccccc1N1CCN(CCCCNC(=O)c2ccn3ncc(Br)c3c2)CC1 [Example B28] | 15 | 180 | 89 | 12 | 59 | 6.4 | 240 |

From patent publication US20100168125A1, “INDOLIZINES AND AZA-ANALOG DERIVATIVES THEREOF AS CNS ACTIVE COMPOUNDS” (priority 2007, published 2010)
